The target in data set [1] is T1, Matrix protein 2 (Influenza A virus, UniProt P06821). The data set is classed as cell-based, Oocyte.
Data set [2] relates to Influenza A virus. Nature of the data set: Antiviral activity against influenza A virus A/hanfang/359/95 (H3N2). It counts as functional, organism-based.
Data set [3] in a line: Cytotoxicity against MDCK cells. It counts as toxicity, cell-based, Canis lupus familiaris. The following applies: dog.
The nature of data set [4]: Selectivity index, ratio of CC50 for MDCK cells to IC50 for influenza A virus A/hanfang/359/95 (H3N2). The data set is classed as toxicity. The following applies: dog, read-out: Ratio CC50/IC50.
Data set [5] concerns Influenza A virus. The data set is classed as functional, organism-based. The following applies: A/WSN/33 (H1N1), MDCK, 48 h.
Data set [6] has as its system Influenza A virus. It counts as functional, organism-based. As to conditions: H5N1 (A/chicken/Hubei/327/2004), MDCK.
A short description of data set [7]: Cytotoxicity against MDCK cells incubated for 72 hrs by CCK-8 assay. The data set is classed as toxicity, cell-based, Canis lupus familiaris. As to conditions: dog.
Data set [8] deals with Influenza A virus. It counts as functional, organism-based. As to conditions: A/WSN/33 (H1N1), MDCK, 48 h. This is another data set of the same source.
Data set [9] concerns the target T1, Matrix protein 2. The data set is classed as cell-based, A/Udorn/72, Oocyte.
The subject of data set [10] is Influenza A virus. It counts as functional, organism-based. As to conditions: H1N1 (A/Hongkong/68), MDCK, 24 h.
In data set [11] the test system is Influenza A virus. It counts as functional, organism-based. As to conditions: H3N2 (A/Perth/10/2007), MDCK, 72 h.
Data set [12] deals with Influenza A virus. It counts as functional, organism-based. The following applies: H1N1 (A/California/7/2009), MDCK, 72 h.
Data set [13] can be described thus: Cytotoxicity against MDCK cells measured after 3 days by MTT assay. It counts as toxicity, cell-based, Canis lupus familiaris. As to conditions: dog, time 3 day.
A short description of data set [14]: Cytotoxicity against MDCK cells incubated for 24 hrs by neutral red uptake assay. It counts as toxicity, cell-based, Canis lupus familiaris. The following applies: dog.

Values after ≈ are worked out from the molar mass of the structure shown. A value given as a limit tells only on which side of the number the result lay.

T1 sequence (P06821 whole entry): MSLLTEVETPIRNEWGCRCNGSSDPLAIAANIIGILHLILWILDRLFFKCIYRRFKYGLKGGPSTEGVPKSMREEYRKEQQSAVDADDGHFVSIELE

`C[Si]1(C)CCCNCC1` registered an IC50 on Matrix protein 2 [1] of 19.4 µM. That is a double-digit micromolar value.

`CC1(C)CCC(N)CC1`: on Matrix protein 2 [1], 2.4 µM corresponded to half-maximal inhibition (IC50). This IC50 is about 8.1-fold lower than that of the compound before.

Regarding `O=C(CCC[C@@H]1[C@H]2CCCN3CCC[C@@H](CN1S(=O)(=O)c1cccc(C(F)(F)F)c1)[C@@H]23)OCC12CC3CC(CC(C3)C1)C2`, the IC50 with Influenza A virus [2] amounted to 5.14 µM. The same compound displayed a CC50 in data set [3] of 47.8 µM. For the same compound, the selectivity ratio in data set [4] stood at 9.31.

Consider `OC12CC3CC(C1)CC(NCc1cnc(N4CCCCC4)nc1)(C3)C2`, for which, in the data set with Influenza A virus [5], the EC50 was 4.3 µM.

On to `[C-]#[N+][C@@H]1C[C@@H]2C[C@H]([C@H]1C)C2(C)C`, for which the concentration giving a half-maximal response (EC50) in the data set with Influenza A virus [6] is 7.36 µM.

Consider `O=C(CCC[C@@H]1[C@H]2CCCN3CCC[C@@H](CN1S(=O)(=O)c1cccc(C(F)(F)F)c1)[C@@H]23)OCC12CC3CC(CC(O)(C3)C1)C2`, for which half-maximal inhibition in the data set on Influenza A virus [2] (IC50) required 11.1 µM.

Compound `[C-]#[N+]C12CC3CC(CC(C3)C1)C2` returned an EC50 in the data set with Influenza A virus [6] of 0.487 µM.

`CC(N)[C@H]1C[C@H]2CC[C@]1(C)C2(C)C` (some centres undefined) yielded a CC50 at 72 h in data set [7] of over 300 µM.

Turning to `c1nc(N2CCCCC2)ncc1CNC12CC3CC(CC(C3)C1)C2`, the EC50 in the data set on Influenza A virus [5] came to 1.5 µM.

Regarding `C[Si]1(C)CCC(N)CC1`, half-maximal inhibition against Matrix protein 2 [1] (IC50) required 2.6 µM. This lies in the single-digit micromolar range.

Compound `NC1CC[Si]2(CCCC2)CC1` came in with an IC50 on Matrix protein 2 [1] of 7.8 µM.

Regarding `O=C(CCC[C@@H]1[C@H]2CCCN3CCC[C@@H](CN1S(=O)(=O)c1ccc(C(F)(F)F)cc1)[C@@H]23)OCCC12CC3CC(CC(C3)C1)C2`, the IC50 with Influenza A virus [2] came to 16.9 µM. In other words, the double-digit micromolar range.

Regarding `c1c(CNC23CC4CC(CC(C4)C2)C3)noc1C1CC1`, the EC50 in the data set on Influenza A virus [8] came out at 0.49 µM.

With `NC1CCC2(CCCCC2)CC1` [listing 1 of 2 here], at Matrix protein 2 [9], the half-maximal inhibitory concentration (IC50) amounted to 12.6 µM. That is a double-digit micromolar value.

For `NCC1CCC2(CCCCC2)CC1`, on Matrix protein 2 [9], the half-inhibitory concentration (IC50) was determined as 8.9 µM.

In the data set on Influenza A virus [2], `O=C(CCC[C@@H]1[C@H]2CCCN3CCC[C@@H](CN1S(=O)(=O)c1ccc(C(F)(F)F)cc1)[C@@H]23)OCC12CC3CC(CC(C3)C1)C2` returned an IC50 of 21.1 µM.

Compound `NC1CCC2(CCCCC2)CC1` [listing 2 of 2 here] showed an IC50 against Matrix protein 2 [1] of 12.6 µM.

In the data set with Influenza A virus [6], `[C-]#[N+]C1C2CC3CC(C2)CC1C3` (centres undefined) returned an EC50 of 9.8 µM.

The compound `CC(NC(=O)c1csc(CN)n1)C12CC3CC(CC(C3)C1)C2` (centres undefined) gave a cytotoxic concentration (CC50) in [3] of 50 µg/mL. Further, in the data set with Influenza A virus [10], half-maximal inhibition (IC50) was put at 0.11 µg/mL (≈ 0.344 µM).

In the case of `CC(N)C1CCC2(CCCCC2)CC1` (centres undefined), at Matrix protein 2 [9], the IC50 came out at 16 µM.

Regarding `[C-]#[N+]c1c(C)cc(C(C)(C)C)cc1C`, a half-maximal effect in the data set with Influenza A virus [6] (EC50) was put at 0.24 µM.

`NC1CCCC2(CCCCCC2)CC1` (centres undefined) returned an IC50 on Matrix protein 2 [9] of 8.7 µM.

Turning to `OC12CC3CC(C1)CC(NCc1ccc(N4CCCCCCC4)cn1)(C3)C2`, the midpoint of the response in the data set on Influenza A virus [5], the EC50, lay at 7.9 µM. This counts as single-digit micromolar.

As to `C[C@H]1[C@H](N)C[C@@H]2C[C@H]1C2(C)C`, the CC50 at 72 h in data set [7] is over 300 µM.

In the case of `CC[C@@H](C(=O)[C@@H](C)[C@@H](O)[C@H](C)[C@@H]1O[C@@H]([C@@H](CC)C(=O)O)CC[C@@H]1C)[C@H]1O[C@]2(C=C[C@@H](O)[C@]3(CC[C@@](C)([C@H]4CC[C@](O)(CC)[C@H](C)O4)O3)O2)[C@H](C)C[C@@H]1C` [SALINOMYCIN], the EC50 turned out to be 2.6 µM in the data set on Influenza A virus [11] and 1.9 µM with Influenza A virus [12]. In data set [13], this compound registered a CC50 at 72 h of 35.6 µM.

On Matrix protein 2 [9], `NC1CCC2(CCCCCC2)CC1` came in with a half-maximal inhibitory concentration (IC50) of 13 µM. This counts as double-digit micromolar.

In turn, `Cc1ccc(S(=O)(=O)N2C[C@@H]3CCCN4CCC[C@@H]([C@H]34)[C@H]2CCCC(=O)OCC23CC4CC(CC(C4)C2)C3)cc1` showed an IC50 in the data set with Influenza A virus [2] of 16.2 µM.

As for `c1nc(N2CCCCCC2)ncc1CNC12CC3CC(CC(C3)C1)C2`, the EC50 in the data set with Influenza A virus [5] is 0.7 µM. That is a sub-micromolar value.

In the data set on Influenza A virus [8], `Brc1cc(CNC23CC4CC(CC(C4)C2)C3)cs1` registered an EC50 of 2.2 µM.

In the data set with Influenza A virus [6], `[C-]#[N+]C(C)C12CC3CC(CC(C3)C1)C2` (centres undefined) came in with an EC50 of 0.24 µM. In other words, the sub-micromolar range.

Compound `CC1(C)CCCNCC1` gave an IC50 at Matrix protein 2 [1] of 26.1 µM.

In the case of `C1CCC2(CC1)CCNCC2`, the IC50 at Matrix protein 2 [9] was 0.9 µM.

Consider `NC1CCC2(CCCC2)CC1` [listing 1 of 2 here], for which, on Matrix protein 2 [1], 3.3 µM corresponded to half-maximal inhibition (IC50).

On Matrix protein 2 [1], `NC1CC[Si]2(CCCCC2)CC1` gave an IC50 of 13.7 µM.

Turning to `C[Si]1(C)CCC(CN)CC1`, on Matrix protein 2 [1], inhibition was half-maximal at 5.7 µM (IC50).

The compound `OC12CC3CC(C1)CC(NCc1ccc(N4CCCCCC4)cn1)(C3)C2` came in with an EC50 with Influenza A virus [5] of 2.7 µM.

For `NC1CCCC2(CCCCC2)CC1` (centres undefined), 13.2 µM corresponded to half-maximal inhibition on Matrix protein 2 [9] (IC50). In other words, the double-digit micromolar range.

Take `O=C(CCC[C@@H]1[C@H]2CCCN3CCC[C@@H](CN1S(=O)(=O)c1ccc(C(F)(F)F)cc1)[C@@H]23)OCC12CC3CC(CC(O)(C3)C1)C2`: in the data set on Influenza A virus [2], the IC50 amounted to 9.53 µM. In other words, the single-digit micromolar range.

In the data set with Influenza A virus [6], `[C-]#[N+]C(C)(C)CC(C)(C)C` returned an EC50 of 3.88 µM. This counts as single-digit micromolar.

`NC1CCC2(CC1)C1CC3CC(C1)CC2C3` (centres undefined) displayed a half-maximal cytotoxic concentration (CC50) at 24 h in [14] of 27.6 µM.

In the data set on Influenza A virus [5], `c1nc(N2CCCCCC2)cnc1CNC12CC3CC(CC(C3)C1)C2` displayed a concentration for a half-maximal effect (EC50) of 1.9 µM.

For the compound `CC1(C)[C@@H]2CC[C@@]1(C)[C@@H](CN)C2`, the CC50 at 72 h in [7] was over 300 µM.

At Matrix protein 2 [9], `NC1CCC2(CCCC2)CC1` [listing 2 of 2 here] gave an IC50 of 3.3 µM.

In the case of `O=C(CCC[C@@H]1[C@H]2CCCN3CCC[C@@H](CN1S(=O)(=O)c1ccccc1)[C@@H]23)OCC12CC3CC(CC(C3)C1)C2`, in the data set on Influenza A virus [2], half-maximal inhibition (IC50) was put at 16.3 µM.

(Values after ChEMBL document CHEMBL5512617, “Tackling Influenza A virus by M2 ion channel blockers: Latest progress and limitations” (Eur J Med Chem, 2024).)
